Data on two compounds can be found in patent US12599556B2, “Ophthalmic compositions” (BIOTHERAVISION, INC., priority 2021, dated 2026).

This series is described as follows: Stability study: assay and related substances by gradient HPLC. Format: physicochemical. On the procedure: The stability of the exemplary compositions was investigated using gradient high performance liquid chromatography analysis at different storage time points of 1 month, 3 months, 6 months, 9 months, and 11 months. The amount of each active ingredient and related degradation substances, pH, osmolality, particle size distribution, and viscosity were measured for each composition at each time point.
The suspension slurry was not irradiation sterilized in the preparation of Panel 1 formulations.
The results of the Panel II stability studies at the accelerated condition (40° C.) for the compositions shown in Table 4 are summarized in Table 6. The suspension slurry of Panel 2 formulations F7, F8, and F9 were irradiation sterilized.

As to `O=C(c1ccccc1)c1ccc2n1CCC2C(=O)O` (centres unmarked) [Ketorolac tromethamine, 2-amino-2-(hydroxymethyl)propane-1,3-diol; 5-benzoyl-2,3-dihydro-1H-pyrrolizine-1-carboxylic acid], the “Stability of ketorolac tromethamine in the compositions” value (all compositions of the stability studies) is listed as “exhibited stability”. Turning to `CCOC(=O)O[C@]1(C(=O)OCCl)CC[C@H]2[C@@H]3CCC4=CC(=O)C=C[C@]4(C)[C@H]3[C@@H](O)C[C@@]21C` [loteprednol etabonate, chloromethyl (8S,9S,10R,11S,13S,14S,17R)-17-ethoxycarbonyloxy-11-hydroxy-10,13-dimethyl-3-oxo-7,8,9,11,12,14,15,16-octahydro-6H-cyclopenta[a]phenanthrene-17-carboxylate], the “Degradation of loteprednol etabonate” value (stability studies) is “pH dependency”.
